We go through six compounds from patent publication EP4578856A1, “HETEROCYCLIC COMPOUND” (Ubience Inc., priority 2022, dated 2024).

The structures appear in SMILES notation. Where only a bound is given, the exact number is not on record here.

As usually defined, the inhibition is how much of the control response was suppressed.

The target in this experiment is ROCK2 protein (Homo sapiens, UniProt O75116). In words: Degradation inducing activity of ROCK2 protein in HUVEC cells, Western blotting (Simple Western JESS). Conditions: HUVEC, 24 h; for inhibition at 1 µM: degradation rate at 1 µM; for inhibition at 10 µM: degradation rate at 10 µM. Format: cell-based. On the set-up: endogenous in cells; host or cells: HUVEC (ATCC CRL-1730). On the procedure:
In vitro degradation inducing activity of ROCK2 protein of compounds of Examples was evaluated by Western Blotting (WB).
By a test compound, 10 mM DMSO solution was prepared, which was used as a 10 µM test compound solution. Further, the solution was diluted 10-fold with DMSO to prepare a 1 mM solution, which was used as a 1 µM test compound solution.
HUVEC cells (ATCC: CRL-1730, Lot: 70041472) were cultured in F-12K medium supplemented with 10% FBS, 0.1 mg/mL heparin, […] Endothelial Cell Growth Supplement (ECGS, Corning), and 1% Penicillin/Streptomycin. The HUVEC cells seeded in a 24 well plate at 50,000 cells/well/1 mL were cultured for 24 hours, and then 1 µL of DMSO or a test compound solution was added thereto and treatment was performed for 24 hours. Cells were harvested and lysed for 20 minutes on ice using lysis buffer (Cell Signaling Technology, Cat#9803) supplemented with protease inhibitor cocktail (Sigma, Cat#P8340; Roche, Cat#P11873580001), and phosphatase inhibitor cocktail (Sigma, Cat#P5726, P0044). The lysate was sonicated (15 seconds, amplitude 30%, 1 cycle) and then centrifuged at 12500 rpm for 15 minutes at 4°C. The protein concentration was determined by BCA assay kit (Thermo Fisher Scientific, Cat#23225).
The western blotting was performed using Simple Western JESS (protein simple). A cell lysis sample (protein amount; about 1.06 µg) was loaded on a plate of Simple Western JESS, and the expression level of ROCK2 protein was detected using a 12-230 kDa Wes Separation Module (Protein simple, Cat#SM-WO04), an Anti-Rabbit Detection Module for Wes (Protein simple, Cat#DM-001), and a Total Protein Detection Module for Wes (Protein simple, Cat#DM-TP01). As the primary antibody, a material obtained by diluting ROCK2 (D1B1) Rabbit mAb (Cell Signaling Technology, Cat#9029) at 1:10 was used, and as the secondary antibody, a material obtained by diluting HRP-labeled anti-rabbit IgG antibody (Cell Signaling Technology, Cat#7074S) at 1:100 was used. The expression level of the target protein was standardized using the total protein amount loaded as a reference. The standardized expression level data of the control (DMSO) was taken as 100%, and the degradation rate (%) was calculated from the average standardized expression level data of the test compound. All analysis steps, such as data detection and analysis, are fully automated.
With respect to the ROCK2 protein degradation rate of the test compound, the protein degradation rates (%) at the evaluation concentrations were set to A ≥ 75%, 75% > B ≥ 50%, 50% > C ≥ 25%, and D < 25%, and are shown in Table 7.
On the technique in general: Immunoblotting shows a protein as a band on a membrane.

ROCK2 protein, sequence (O75116 whole entry): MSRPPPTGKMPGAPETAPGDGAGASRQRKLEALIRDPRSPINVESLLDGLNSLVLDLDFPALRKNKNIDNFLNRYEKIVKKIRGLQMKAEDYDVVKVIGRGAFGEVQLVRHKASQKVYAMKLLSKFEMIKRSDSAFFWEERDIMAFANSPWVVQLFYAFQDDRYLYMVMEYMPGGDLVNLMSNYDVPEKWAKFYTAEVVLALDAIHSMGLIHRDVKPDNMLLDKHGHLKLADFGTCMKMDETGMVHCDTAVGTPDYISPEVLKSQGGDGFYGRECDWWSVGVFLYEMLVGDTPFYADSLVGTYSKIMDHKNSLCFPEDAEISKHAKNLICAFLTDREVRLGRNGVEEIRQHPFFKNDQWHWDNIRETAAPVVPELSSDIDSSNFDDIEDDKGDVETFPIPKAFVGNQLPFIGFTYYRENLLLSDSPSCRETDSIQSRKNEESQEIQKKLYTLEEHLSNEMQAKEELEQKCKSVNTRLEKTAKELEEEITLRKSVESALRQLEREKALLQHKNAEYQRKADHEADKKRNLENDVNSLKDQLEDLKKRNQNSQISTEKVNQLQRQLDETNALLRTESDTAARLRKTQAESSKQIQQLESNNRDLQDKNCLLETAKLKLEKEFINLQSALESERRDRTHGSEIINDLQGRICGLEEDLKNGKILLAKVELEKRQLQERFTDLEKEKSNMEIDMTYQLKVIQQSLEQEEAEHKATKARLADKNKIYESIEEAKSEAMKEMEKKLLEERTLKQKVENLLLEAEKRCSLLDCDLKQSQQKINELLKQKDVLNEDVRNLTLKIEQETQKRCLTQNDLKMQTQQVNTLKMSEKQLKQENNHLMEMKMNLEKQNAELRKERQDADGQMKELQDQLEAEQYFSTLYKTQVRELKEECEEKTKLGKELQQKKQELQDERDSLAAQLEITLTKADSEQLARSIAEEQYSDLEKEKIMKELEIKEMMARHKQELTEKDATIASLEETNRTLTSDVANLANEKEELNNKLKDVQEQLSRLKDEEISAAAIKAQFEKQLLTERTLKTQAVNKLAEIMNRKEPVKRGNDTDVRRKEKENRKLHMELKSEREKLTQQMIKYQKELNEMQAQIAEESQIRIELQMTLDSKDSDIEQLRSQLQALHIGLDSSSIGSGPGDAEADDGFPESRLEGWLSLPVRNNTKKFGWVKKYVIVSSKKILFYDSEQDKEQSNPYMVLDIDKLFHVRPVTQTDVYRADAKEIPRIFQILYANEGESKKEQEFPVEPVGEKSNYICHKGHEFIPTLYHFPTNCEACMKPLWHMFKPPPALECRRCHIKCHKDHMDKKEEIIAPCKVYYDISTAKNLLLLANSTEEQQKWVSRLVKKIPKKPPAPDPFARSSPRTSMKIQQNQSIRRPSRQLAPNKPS

`COC[C@H]1CN[C@H](C)CN1CC(=O)N1CC(C)(C)c2ncc(Cc3cccc(OCCOCCOCCOCCOCCOCCN[C@H](Cc4cccc(F)c4)C(=O)Nc4ccc(-c5ccncc5)cc4)c3)cc21` [Example 54, (R)-2-(3-Fluorobenzyl)-20-(3-((1-(2-((2R,5R)-2-(methoxymethyl)-5-methylpiperazin-1-yl)acetyl)-3,3-dimethyl-2,3-dihydro-1H-pyrrolo[3,2-b]pyridin-6-yl)methyl)phenoxy)-N-(4-(pyridin-4-yl)phenyl)-6,9,12,15,18-pentaoxa-3-azaicosanamide] registered an inhibition at 1 µM of no less than 75% and an inhibition at 10 µM of 25 to 50%.

Consider `C[C@@H]1CN(CC(=O)N2CC(C)(C)c3ncc(Cc4ccc(F)cc4)cc32)[C@@H](CN(C)CCOCCOCCOCCOCCOCCNC[C@@H](C(=O)Nc2ccc3cnccc3c2)c2ccccc2)CN1` [Example 19, (S)-1-((2R,5R)-1-(2-(6-(4-Fluorobenzyl)-3,3-dimethyl-2,3-dihydro-1H-pyrrolo[3,2-b]pyridin-1-yl)-2-oxoethyl)-5-methylpiperazin-2-yl)-N-(isoquinolin-6-yl)-2-methyl-22-phenyl-5,8,11,14,17-pentaoxa-2,20-diazatricosan-23-amide], for which the inhibition at 1 µM fell in the range of 25 to 50% and the inhibition at 10 µM is no less than 75%.

`COC[C@H]1CN[C@H](C)CN1CC(=O)N1CC(C)(C)c2ncc(Cc3cccc(OCCOCCOCCOCCOCCOCCOCCNC[C@@H](C(=O)Nc4ccc5cnccc5c4)c4ccccc4)c3)cc21` [Example 62, (S)-N-(Isoquinolin-6-yl)-1-(3-((1-(2-((2R,5R)-2-(methoxymethyl)-5-methylpiperazin-1-yl)acetyl)-3,3-dimethyl-2,3-dihydro-1H-pyrrolo[3,2-b]pyridin-6-yl)methyl)phenoxy)-23-phenyl-3,6,9,12,15,18-hexaoxa-21-azatetracosan-24-amide] had an inhibition at 1 µM of 25 to 50% and an inhibition at 10 µM of no less than 75%.

As to `COC[C@H]1CN[C@H](C)CN1CC(=O)N1CC(C)(C)c2ncc(Cc3cccc(OCCOCCOCCN[C@H](C)c4ccc(C(=O)Nc5ccncc5)cc4)c3)cc21` [Example 44, 4-((R)-1-((2-(2-(2-(3-((1-(2-((2R,5R)-2-(Methoxymethyl)-5-methylpiperazin-1-yl)acetyl)-3,3-dimethyl-2,3-dihydro-1H-pyrrolo[3,2-b]pyridin-6-yl)methyl)phenoxy)ethoxy)ethoxy)ethyl)amino)ethyl)-N-(pyridin-4-yl)benzamide], the inhibition at 1 µM was 50 to 75% and the inhibition at 10 µM is no less than 75%.

Turning to `COC[C@H]1CN[C@H](C)CN1CC(=O)N1CC(C)(C)c2ncc(Cc3cccc(OCCOCCOCCOCCOCCN[C@H](Cc4cccc(F)c4)C(=O)Nc4ccc(-c5ccncc5)cc4)c3)cc21` [Example 53, (R)-2-(3-Fluorobenzyl)-17-(3-((1-(2-((2R,5R)-2-(methoxymethyl)-5-methylpiperazin-1-yl)acetyl)-3,3-dimethyl-2,3-dihydro-1H-pyrrolo[3,2-b]pyridin-6-yl)methyl)phenoxy)-N-(4-(pyridin-4-yl)phenyl)-6,9,12,15-tetraoxa-3-azaheptadecanamide], the inhibition at 1 µM was less than 25% and the inhibition at 10 µM lay in the range of 50 to 75%.

With `COC[C@H]1CN[C@H](C)CN1CC(=O)N1CC(C)(C)c2nc(CN(C)CCOCCOCCN[C@H](C)c3ccc(C(=O)Nc4ccncc4)cc3)c(Cc3ccc(F)cc3)cc21` [Example 23, 4-((R)-1-(6-(4-Fluorobenzyl)-1-(2-((2R,5R)-2-(methoxymethyl)-5-methylpiperazin-1-yl)acetyl)-3,3-dimethyl-2,3-dihydro-1H-pyrrolo[3,2-b]pyridin-5-yl)-2-methyl-5,8-dioxa-2,11-diazatridecan-12-yl)-N-(pyridin-4-yl)benzamide], the inhibition at 1 µM is no less than 75% and the inhibition at 10 µM is no less than 75%.
